The record followed here is patent US9376420B2 (YUHAN CORPORATION, priority 2012, dated 2016).

In the experiment the target is T1, human LXRβ (Homo sapiens, UniProt P55055).
T1 construct: expressed in transfected cells; host or cells: HEK293 cells (ATCC CRL-1573), transient transfection with pFA-hLXRβ/GAL4 and pUAS
T1 sequence (P55055 222-460 limits assumed): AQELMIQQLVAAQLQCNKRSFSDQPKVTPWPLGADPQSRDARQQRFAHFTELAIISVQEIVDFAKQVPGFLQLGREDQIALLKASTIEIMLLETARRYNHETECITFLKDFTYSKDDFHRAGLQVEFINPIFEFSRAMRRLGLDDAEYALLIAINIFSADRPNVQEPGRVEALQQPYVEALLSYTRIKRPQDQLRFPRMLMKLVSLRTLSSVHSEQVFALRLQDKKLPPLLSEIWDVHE
As to the kind of experiment: Assay for Transcriptional Activity of LXRβ (GAL4-hLXRβ LBD luciferase reporter, transient transfection). The experiment is classed as cell-based. The conditions noted are these: HEK293 cells transfected with pFA-hLXRβ/GAL4 and pUAS, 24 hours; for Emax: fold value in comparison with the control (DMSO-treated group); for EC50: increase of transcriptional activity of LXRβ, average of three independent tests. The method in brief: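 HEK293 cells transiently co-transfected with GAL4-hLXRβ LBD and 5×GAL4-UAS luciferase reporter, treated 24 h at 37 °C with compounds over 9 points (0.01–50 μM, half-log). Luminescence read after lysis; EC50 from four-parameter fit, mean of three independent tests, with a known LXR agonist as positive control.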

In general, EC50 refers to the concentration needed to bring the measured effect to its halfway point. Take `CS(=O)(=O)c1ccc(-c2cccc(C3CC(C(F)(F)C(F)(F)F)=NN3c3ccc(Cl)cc3F)c2)cc1` (stereo not shown) [Example 53, 1-(4-chloro-2-fluoro-phenyl)-5-(4′-methanesulfonyl-biphenyl-3-yl)-3-pentafluoroethyl-4,5-dihydro-1H-pyrazole]: the Emax came to 61 fold and the EC50 worked out at 746 nM.

`CN(CCCS(=O)(=O)c1ccc(-c2cccc(C3CC(C(F)(F)C(F)(F)F)=NN3c3ccc(F)cc3F)c2)cc1)C(=O)OC(C)(C)C` (stereo not shown) [Example 86, 5-{4′-[3-(N-BOC-N-methyl-amino)-propane-1-sulfonyl]-biphenyl-3-yl}-1-(2,4-difluoro-phenyl)-3-pentafluoroethyl-4,5-dihydro-1H-pyrazole] registered an Emax of 45 fold and a 50% effective concentration (EC50) of 958 nM.

Consider `CNCCCS(=O)(=O)c1cccc(-c2cccc(C3CC(C(F)(F)C(F)(F)F)=NN3c3ccc(F)cc3F)c2)c1` (stereo not shown) [Example 89, 1-(2,4-difluoro-phenyl)-5-{3′-[3-(N-methyl-amino)-propane-1-sulfonyl]-biphenyl-3-yl}-3-pentafluoroethyl-4,5-dihydro-1H-pyrazole], for which the Emax is given as 106 fold and a half-maximal effect (EC50) was put at 382 nM.

The compound `CS(=O)(=O)c1ccc(-c2ccc(C3CC(C(O)(C(F)(F)F)C(F)(F)F)=NN3c3ccccc3Cl)cc2)c(C(F)(F)F)c1` (stereo not shown) [Example 289, 1-(2-chloro-phenyl)-5-[4′-(methylsulfonyl)-2′-(trifluoromethyl)-biphenyl-4-yl]-3-[di-(trifluoromethyl)-hydroxy-methyl]-4,5-dihydro-1H-pyrazole] yielded an Emax of 32 fold and an EC50 of 320 nM.

In turn, `CNCCCS(=O)(=O)c1cccc(-c2cccc(N3N=C(C(F)(F)C(F)(F)F)CC3c3ccc(F)cc3F)c2)c1.Cl` (stereo not shown) [Example 212, 5-(2,4-difluoro-phenyl)-1-[3′-(3-methylamino-propane-1-sulfonyl)-biphenyl-3-yl]-3-pentafluoroethyl-4,5-dihydro-1H-pyrazole hydrochloride] returned an Emax of 9 fold and an EC50 of 1620 nM.

On to `Cc1ncccc1-c1ccc(C2CC(C(O)(C(F)(F)F)C(F)(F)F)=NN2c2ccc(F)cc2F)cc1` (stereo not shown) [Example 376, 1-(2,4-difluoro-phenyl)-5-(4-(2-methyl-pyridin-3-yl)-phenyl)-3-[di-(trifluoromethyl)-hydroxy-methyl]-4,5-dihydro-1H-pyrazole], for which the Emax is 39 fold and the EC50 came out at 325 nM.

On to `OC(C1=NN(c2ccccc2Cl)C(c2ccc(-c3cc(F)c(-n4cncn4)cc3F)cc2)C1)(C(F)(F)F)C(F)(F)F` (stereo not shown) [Example 287, 1-(2-chloro-phenyl)-5-[2′,5′-difluoro-4′-(1H-1,2,4-triazol-1-yl)-biphenyl-4-yl]-3-[di-(trifluoromethyl)-hydroxy-methyl]-4,5-dihydro-1H-pyrazole], for which the Emax is on record as 47 fold and the 50% effective concentration (EC50) is 519 nM.

`CS(=O)(=O)c1ccc(-c2ccc(C3CC(C(O)(C(F)(F)F)C(F)(F)F)=NN3c3ccc(F)cc3F)cc2)cc1F` (stereo not shown) [Example 387, 1-(2,4-difluoro-phenyl)-5-(3′-fluoro-4′-methanesulfonyl-biphenyl-4-yl)-3-[di-(trifluoromethyl)-hydroxy-methyl]-4,5-dihydro-1H-pyrazole] had an Emax of 27 fold and a concentration for a half-maximal effect (EC50) of 47 nM.

`OC(C1=NN(c2ccc(F)cc2F)C(c2ccc(-c3cncnc3)cc2)C1)(C(F)(F)F)C(F)(F)F` (stereo not shown) [Example 372, 1-(2,4-difluoro-phenyl)-5-(4-pyrimidin-5-yl-phenyl)-3-[di-(trifluoromethyl)-hydroxy-methyl]-4,5-dihydro-1H-pyrazole]: the Emax is 42 fold and a half-maximal response (EC50) required 412 nM.

The compound `CSc1ccc(-c2cccc(C3CC(C(F)(F)C(F)(F)F)=NN3c3ccc(Cl)cc3F)c2)cc1` (stereo not shown) [Example 31, 1-(4-chloro-2-fluoro-phenyl)-5-(4′-methylsulfanyl-biphenyl-3-yl)-3-pentafluoroethyl-4,5-dihydro-1H-pyrazole] showed an Emax of 28 fold and a concentration giving a half-maximal response (EC50) of 5660 nM.

As for `O=S(=O)(N1CC=C(c2ccc(C3CC(C(O)(C(F)(F)F)C(F)(F)F)=NN3c3ccccc3Cl)cc2)CC1)N1CCCC1` (stereo not shown) [Example 308, 1-(2-chloro-phenyl)-5-{4-[1-(pyrrolidine-1-sulfonyl)-1,2,3,6-tetrahydropyridin-4-yl]-phenyl}-3-[di-(trifluoromethyl)-hydroxy-methyl]-4,5-dihydro-1H-pyrazole], the Emax was determined as 36 fold and it took 495 nM to reach a half-maximal effect (EC50).

Take `OC(C1=NN(c2ccccc2Cl)C(c2ccc(-c3cccnc3)cc2)C1)(C(F)(F)F)C(F)(F)F` (stereo not shown) [Example 277, 1-(2-chloro-phenyl)-5-[4-(pyridin-3-yl)-phenyl]-3-[di-(trifluoromethyl)-hydroxy-methyl]-4,5-dihydro-1H-pyrazole]: the Emax came out at 65 fold and a half-maximal response (EC50) required 364 nM.

For the compound `Oc1cccc(-c2cccc(C3CC(C(F)(F)C(F)(F)F)=NN3c3ccccc3Cl)c2)c1` (stereo not shown) [Example 111, 1-(2-chloro-phenyl)-5-(3′-hydroxy-biphenyl-3-yl)-3-pentafluoroethyl-4,5-dihydro-1H-pyrazole], the Emax worked out at 41 fold and a half-maximal response (EC50) required 4150 nM.

Consider `CS(=O)(=O)c1ccc(-c2cccc(C3CC(C(F)(F)C(F)(F)F)=NN3c3ccccc3Cl)c2)cc1` (stereo not shown) [Example 106, 1-(2-chloro-phenyl)-5-(4′-methylsulfonyl-biphenyl-3-yl)-3-pentafluoroethyl-4,5-dihydro-1H-pyrazole], for which the Emax is 85 fold and a half-maximal effect (EC50) was put at 1160 nM.

Take `CS(=O)(=O)c1ccc(-c2cccc(C3CC(C(F)(F)C(F)(F)F)=NN3c3ccc(F)cc3F)c2)cn1` (stereo not shown) [Example 92, 1-(2,4-difluoro-phenyl)-5-[3-(6-methanesulfonyl-pyridin-3-yl)-phenyl]-3-pentafluoroethyl-4,5-dihydro-1H-pyrazole]: the Emax came out at 81 fold and a half-maximal response (EC50) required 344 nM.

`CS(=O)(=O)c1ccc(-c2cncc(C3CC(C(F)(F)C(F)(F)F)=NN3c3ccc(F)cc3F)c2)cc1` (stereo not shown) [Example 162, 1-(2,4-difluoro-phenyl)-5-[3-(4-methanesulfonyl-phenyl)-pyridin-5-yl]-3-pentafluoroethyl-4,5-dihydro-1H-pyrazole]: the Emax was 59 fold and it took 2930 nM to reach a half-maximal effect (EC50).

The compound `Fc1ccc(N2N=C(C(F)(F)C(F)(F)F)CC2c2cccc(-c3cncnc3)c2)c(F)c1` (stereo not shown) [Example 57, 1-(2,4-difluoro-phenyl)-3-pentafluoroethyl-5-[3-(5-pyrimidyl)-phenyl]-4,5-dihydro-1H-pyrazole] gave an Emax of 39 fold and an EC50 of 4770 nM.

Compound `Fc1cncc(-c2cccc(C3CC(C(F)(F)C(F)(F)F)=NN3c3ccc(F)cc3F)c2)c1` (stereo not shown) [Example 74, 1-(2,4-difluoro-phenyl)-5-(3-(5-fluoro-pyridin-3-yl)-phenyl)-3-pentafluoroethyl-4,5-dihydro-1H-pyrazole] yielded an Emax of 29 fold and a half-maximal effective concentration (EC50) of 2960 nM.

Take `CN(C)S(=O)(=O)c1ccc(-c2ccc(C3CC(C(O)(C(F)(F)F)C(F)(F)F)=NN3c3ccc(F)cc3F)cc2)cc1` (stereo not shown) [Example 396, 1-(2,4-difluoro-phenyl)-5-(4′-dimethylsulfamoyl-biphenyl-4-yl)-3-(di-(trifluoromethyl)-hydroxy-methyl)-4,5-dihydro-1H-pyrazole]: the Emax is 83 fold and the EC50 amounted to 145 nM.

Turning to `C[S+]([O-])c1ccc(-c2cccc(C3CC(C(F)(F)C(F)(F)F)=NN3c3ccc(Cl)cc3Cl)c2)cc1` (stereo not shown) [Example 42, 1-(2,4-dichloro-phenyl)-5-(4′-methanesulfinyl-biphenyl-3-yl)-3-pentafluoroethyl-4,5-dihydro-1H-pyrazole], the Emax was determined as 103 fold and a half-maximal response (EC50) required 593 nM.

On to `O=C(CCC1CCCC1)N1CC=C(c2cccc(C3CC(C(O)(C(F)(F)F)C(F)(F)F)=NN3c3ccccc3Cl)c2)CC1` (stereo not shown) [Example 233, 1-(2-chloro-phenyl)-5-{3-[1-(3-cyclopentyl-propionyl)-1,2,3,6-tetrahydropyridin-4-yl]-phenyl}-3-[di-(trifluoromethyl)-hydroxy-methyl]-4,5-dihydro-1H-pyrazole], for which the Emax is recorded as 72 fold and the EC50 was determined as 21 nM.

`CCS(=O)(=O)N1CCCN(c2ccc(C3CC(C(O)(C(F)(F)F)C(F)(F)F)=NN3c3ccccc3Cl)cc2)CC1` (stereo not shown) [Example 323, 1-(2-chloro-phenyl)-5-[4-(4-ethanesulfonyl-homopiperazin-1-yl)-phenyl]-3-[di-(trifluoromethyl)-hydroxy-methyl]-4,5-dihydro-1H-pyrazole] showed an Emax of 54 fold and an EC50 of 344 nM.

`O=S(=O)(C1CC1)N1CC=C(c2ccc(C3CC(C(O)(C(F)(F)F)C(F)(F)F)=NN3c3ccccc3Cl)cc2)CC1` (stereo not shown) [Example 304, 1-(2-chloro-phenyl)-5-[4-(1-cyclopropanesulfonyl-1,2,3,6-tetrahydropyridin-4-yl)-phenyl]-3-[di-(trifluoromethyl)-hydroxy-methyl]-4,5-dihydro-1H-pyrazole]: the Emax was 104 fold and the response was half-maximal at 521 nM (EC50).
